From ChEMBL document CHEMBL3352042, “Synthesis of novel benzimidazole functionalized chiral thioureas and evaluation of their antibacterial and anticancer activities” (Bioorg Med Chem Lett, 2014)
Converted amounts (≈) assume the structure as drawn. The source made the active and inactive calls. The calls are words filed in the database; no cut-off is given here.

How the values were obtained:
[1] = tested on: DU-145; test: Cytotoxicity against human DU145 cells by MTT assay; format: functional, cell-based
[2] = tested on: Escherichia coli; test: Antibacterial activity against Escherichia coli MTCC 739 after 24 hrs by well diffusion method; format: functional
[3] = tested on: A549; test: Cytotoxicity against human A549 cells by MTT assay; format: functional, cell-based
[4] = tested on: HeLa; test: Cytotoxicity against human HeLa cells by MTT assay; format: functional, cell-based
[5] = tested on: Raoultella planticola; test: Antibacterial activity against Klebsiella planticola MTCC 530 after 24 hrs by well diffusion method; format: functional
[6] = tested on: Pseudomonas aeruginosa; test: Antibacterial activity against Pseudomonas aeruginosa MTCC 2453 after 24 hrs by well diffusion method; format: functional
[7] = tested on: Staphylococcus aureus; test: Antibacterial activity against Staphylococcus aureus MLS16 MTCC 2940 after 24 hrs by well diffusion method; format: functional
[8] = tested on: Bacillus subtilis; test: Antibacterial activity against Bacillus subtilis MTCC 121 after 24 hrs by well diffusion method; format: functional
[9] = tested on: Micrococcus luteus; test: Antibacterial activity against Micrococcus luteus MTC 2470 after 24 hrs by well diffusion method; format: functional
[10] = tested on: MCF7; test: Cytotoxicity against human MCF7 cells by MTT assay; format: functional, cell-based
[11] = tested on: Staphylococcus aureus; test: Antibacterial activity against Staphylococcus aureus MTCC 96 after 24 hrs by well diffusion method; format: functional
[12] = Homo sapiens, DU-145, read-out: IC50
[13] = Homo sapiens, A549, read-out: IC50
[14] = Homo sapiens, HeLa, read-out: IC50
[15] = Homo sapiens, MCF7, read-out: IC50

SMILES | MIC ([2]; MTCC 739, 24 h) [µg/mL] | MIC ([6]; MTCC 2453, 24 h) [µg/mL] | MIC ([7]; MLS16 MTCC 2940, 24 h) [µg/mL] | MIC ([8]; MTCC 121, 24 h) [µg/mL] | MIC ([9]; MTC 2470, 24 h) [µg/mL] | MIC ([11]; MTCC 96, 24 h) [µg/mL] | MIC [2] | MIC [6] | MIC [7] | MIC [8] | MIC [9] | MIC [11] | IC50 [1, 12] [µM] | IC50 [3, 13] [µM] | IC50 [4, 14] [µM] | MIC ([5]; MTCC 530, 24 h) [µg/mL] | IC50 [10, 15] [µM] | MIC [5] | further results
COc1cccc2c1C(=O)c1c(O)c3c(c(O)c1C2=O)C[C@@](O)(C(=O)CO)C[C@@H]3O[C@H]1C[C@H](N)[C@H](O)[C@H](C)O1 [DOXORUBICIN] | – | – | – | – | – | – | – | – | – | – | – | – | 0.8 | – | – | – | – | – | –
S=C(Nc1ccccc1)N[C@@H](Cc1ccccc1)c1nc2ccccc2[nH]1 | 12.5 (≈ 33.6 µM) | > 200 | > 200 | > 200 | > 200 | 25 (≈ 67.1 µM) | – | – | – | – | – | – | – | – | – | > 200 | – | – | IC50 ([3]; a549): Not Active; IC50 ([4]; hela): Not Active; IC50 ([10]; mcf7): Not Active; IC50 ([1]; du-145): Not Active
CC(C)C[C@H](NC(=S)NCc1ccccc1)c1nc2ccccc2[nH]1 | > 200 | > 200 | > 200 | > 200 | > 200 | > 200 | – | – | – | – | – | – | 21.1 | 75.7 | 31.2 | > 200 | – | – | –
CC(C)C[C@H](NC(=S)Nc1cc(C(F)(F)F)cc(C(F)(F)F)c1)c1nc2ccccc2[nH]1 | 12.5 (≈ 26.3 µM) | 25 (≈ 52.7 µM) | 12.5 (≈ 26.3 µM) | 12.5 (≈ 26.3 µM) | 6.25 (≈ 13.2 µM) | 25 (≈ 52.7 µM) | – | – | – | – | – | – | 17.2 | 17.4 | 18.1 | 12.5 (≈ 26.3 µM) | 16.3 | – | –
CC(C)C[C@H](NC(=S)Nc1ccccc1)c1nc2ccccc2[nH]1 | > 200 | > 200 | > 200 | > 200 | > 200 | 25 (≈ 73.9 µM) | – | – | – | – | – | – | 28.9 | 28.6 | 29.1 | > 200 | 25.8 | – | –
CC(C)[C@@H](NC(=S)Nc1cc(C(F)(F)F)cc(C(F)(F)F)c1)c1nc2ccccc2[nH]1 | – | – | – | – | – | – | inactive | inactive | inactive | inactive | inactive | inactive | 20.2 | 22.4 | 16.2 | – | 16.4 | inactive | –
C[C@H](NC(=S)NCc1ccccc1)c1nc2ccccc2[nH]1 | > 200 | > 200 | > 200 | 25 (≈ 80.5 µM) | > 200 | 12.5 (≈ 40.3 µM) | – | – | – | – | – | – | 226 | – | – | > 200 | 217 | – | IC50 ([3]; a549): Not Active
FC(F)(F)c1cc(NC(=S)N[C@H](Cc2ccccc2)c2nc3ccccc3[nH]2)cc(C(F)(F)F)c1 | – | – | – | – | – | – | inactive | inactive | inactive | inactive | inactive | inactive | 17.4 | 15.8 | 13.2 | – | 12.1 | inactive | –
C[C@H](NC(=S)Nc1ccccc1)c1nc2ccccc2[nH]1 | > 200 | > 200 | > 200 | 12.5 (≈ 42.2 µM) | > 200 | 12.5 (≈ 42.2 µM) | – | – | – | – | – | – | – | 188 | – | > 200 | 196 | – | IC50 ([4]; hela): Not Active; IC50 ([1]; du-145): Not Active
S=C(NCc1ccccc1)N[C@@H](Cc1ccccc1)c1nc2ccccc2[nH]1 | > 200 | > 200 | > 200 | > 200 | > 200 | 25 (≈ 64.7 µM) | – | – | – | – | – | – | 39.7 | 32.8 | 30.1 | > 200 | 40.2 | – | –

Further lines, with some results ahead:

MIC ([2]; MTCC 739, 24 h) [µg/mL] | MIC ([6]; MTCC 2453, 24 h) [µg/mL] | MIC ([7]; MLS16 MTCC 2940, 24 h) [µg/mL] | MIC ([8]; MTCC 121, 24 h) [µg/mL] | MIC ([9]; MTC 2470, 24 h) [µg/mL] | MIC ([11]; MTCC 96, 24 h) [µg/mL] | MIC [2] | MIC [6] | MIC [7] | MIC [8] | MIC [9] | MIC [11] | SMILES | IC50 [1, 12] [µM] | IC50 [3, 13] [µM] | IC50 [4, 14] [µM] | MIC ([5]; MTCC 530, 24 h) [µg/mL] | IC50 [10, 15] [µM] | MIC [5] | further results
> 200 | > 200 | > 200 | > 200 | > 200 | > 200 | – | – | – | – | – | – | CC(C)[C@H](NC(=S)Nc1ccccc1)c1nc2ccccc2[nH]1 | 12.3 | 5.2 | 11.1 | > 200 | 9.8 | – | –
> 200 | > 200 | 12.5 (≈ 28.9 µM) | 25 (≈ 57.8 µM) | 25 (≈ 57.8 µM) | 12.5 (≈ 28.9 µM) | – | – | – | – | – | – | C[C@H](NC(=S)Nc1cc(C(F)(F)F)cc(C(F)(F)F)c1)c1nc2ccccc2[nH]1 | 154 | 220 | 133 | > 200 | 187 | – | –
– | – | – | – | – | – | inactive | inactive | inactive | inactive | inactive | inactive | S=C(Nc1ccccc1)N[C@H](Cc1ccccc1)c1nc2ccccc2[nH]1 | 18.4 | 16.2 | 10.4 | – | 9.4 | inactive | –
– | – | – | – | – | – | inactive | inactive | inactive | inactive | inactive | inactive | CC(C)C[C@@H](NC(=S)NCc1ccccc1)c1nc2ccccc2[nH]1 | 21.2 | 22.4 | 21.2 | – | 18.2 | inactive | –
> 200 | > 200 | > 200 | 12.5 (≈ 36.9 µM) | > 200 | 12.5 (≈ 36.9 µM) | – | – | – | – | – | – | CC(C)[C@H](NC(=S)NCc1ccccc1)c1nc2ccccc2[nH]1 | 48.5 | 56.1 | 49.9 | > 200 | 57.8 | – | –
– | – | – | – | – | – | inactive | inactive | inactive | inactive | inactive | inactive | C[C@@H](NC(=S)NCc1ccccc1)c1nc2ccccc2[nH]1 | 28.7 | 18.7 | – | – | 14.3 | inactive | IC50 ([4]; hela): Not Active
12.5 (≈ 20.3 µM) | 12.5 (≈ 20.3 µM) | 12.5 (≈ 20.3 µM) | 12.5 (≈ 20.3 µM) | 12.5 (≈ 20.3 µM) | 12.5 (≈ 20.3 µM) | – | – | – | – | – | – | NC[C@@H]1O[C@H](O[C@H]2[C@@H](O)[C@H](O[C@@H]3[C@@H](O)[C@H](N)C[C@H](N)[C@H]3O[C@H]3O[C@H](CN)[C@@H](O)[C@H](O)[C@H]3N)O[C@@H]2CO)[C@H](N)[C@@H](O)[C@@H]1O [FRAMYCETIN] | – | – | – | 12.5 (≈ 20.3 µM) | – | – | –
– | – | – | – | – | – | inactive | inactive | inactive | inactive | inactive | inactive | S=C(NCc1ccccc1)N[C@H](Cc1ccccc1)c1nc2ccccc2[nH]1 | 24.3 | 26.5 | – | – | 32.2 | inactive | IC50 ([4]; hela): Not Active
12.5 (≈ 27.1 µM) | 6.25 (≈ 13.6 µM) | 12.5 (≈ 27.1 µM) | 12.5 (≈ 27.1 µM) | 25 (≈ 54.3 µM) | 25 (≈ 54.3 µM) | – | – | – | – | – | – | CC(C)[C@H](NC(=S)Nc1cc(C(F)(F)F)cc(C(F)(F)F)c1)c1nc2ccccc2[nH]1 | 26.1 | 25.1 | 28.9 | 25 (≈ 54.3 µM) | 24.3 | – | –
– | – | – | – | – | – | inactive | inactive | inactive | inactive | inactive | inactive | CC(C)[C@@H](NC(=S)NCc1ccccc1)c1nc2ccccc2[nH]1 | 17.3 | 11.3 | 12.3 | – | 11.1 | inactive | –
– | – | – | – | – | – | inactive | inactive | inactive | inactive | inactive | inactive | C[C@@H](NC(=S)Nc1cc(C(F)(F)F)cc(C(F)(F)F)c1)c1nc2ccccc2[nH]1 | 17.6 | 15.2 | 16.1 | – | 10.3 | inactive | –
– | – | – | – | – | – | inactive | inactive | inactive | inactive | inactive | inactive | C[C@@H](NC(=S)Nc1ccccc1)c1nc2ccccc2[nH]1 | 22.1 | 14.8 | 12.4 | – | 16.4 | inactive | –
12.5 (≈ 24.6 µM) | > 200 | > 200 | > 200 | > 200 | 12.5 (≈ 24.6 µM) | – | – | – | – | – | – | FC(F)(F)c1cc(NC(=S)N[C@@H](Cc2ccccc2)c2nc3ccccc3[nH]2)cc(C(F)(F)F)c1 | 20.4 | 19 | 18.2 | > 200 | 19.2 | – | –
– | – | – | – | – | – | inactive | inactive | inactive | inactive | inactive | inactive | CC(C)C[C@@H](NC(=S)Nc1ccccc1)c1nc2ccccc2[nH]1 | 20 | 18.7 | 12.1 | – | 11.9 | inactive | –
– | – | – | – | – | – | inactive | inactive | inactive | inactive | inactive | inactive | CC(C)[C@@H](NC(=S)Nc1ccccc1)c1nc2ccccc2[nH]1 | 34.8 | 31.5 | – | – | – | inactive | IC50 ([4]; hela): Not Active; IC50 ([10]; mcf7): Not Active
